From patent US5324747A, “N-substituted anilines, inhibitors of phospholipases A2” (Hoffmann-La Roche Inc., priority 1992, dated 1994)
pIC50: −log10 of the molar value.

Assays:
HSF-PLA2 = target: T1, HSF-PLA2 (Homo sapiens, UniProt P14555); test: Assay for Inhibition of HSF-PLA2 In Vitro; assay type: biochemical; conditions: for pIC50: read-out: Inhib of HSF-PLA2 IC50; for inhibition at 5 µM / inhibition at 1 µM: read-out: Inhib of HSF-PLA2, % inhibition
T1 construct: extracellular enzyme obtained from human synovial fluid (HSF-PLA2); from tissue; host or cells: pooled human synovial fluid, added at 0.1% (v/v)
T1 sequence (P14555 21-144): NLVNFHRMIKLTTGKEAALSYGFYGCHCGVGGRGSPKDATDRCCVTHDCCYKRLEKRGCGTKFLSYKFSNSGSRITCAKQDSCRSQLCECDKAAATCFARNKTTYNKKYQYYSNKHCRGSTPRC
Protocol: Assay for Inhibition of HSF-PLA2 In Vitro
The PLA2 used in this test is the extracellular enzyme obtained from human synovial fluid (HSF-PLA2).
The optimal conditions which were developed for the assay of HSF-PLA2 inhibitors are summarized as follows. […] The reaction was initiated by the addition of HSF-PLA2 and duplicate samples of the mixture were incubated in 13×100 mm glass tubes with shaking for 30 minutes at 37° C. […] The extraction of lipids from the stopped reaction mixture was conducted by the further additions of […] of chloroform and 1 ml of water with mixing. After centrifuging, the lower chloroform phase was transferred to smaller glass tubes and the solvent was evaporated to dryness with a nitrogen stream. The extracted lipid residue was redissolved in 50 μl of a solution containing carrier oleic acid (0.2 mg/ml) of chloroform-methanol [9 to 1, v/v]). The whole lipid extract was applied to a preactivated (30 minutes at 110° C.) silica gel-impregnated glass fiber thin layer chromatography sheet (ITLC type SG sheet from Gelman Sciences, Inc., Ann Arbor, Mich.) using hexane-acetic acid (100 to 1, v/v) as the developing solvent. This TLC system rapidly (6 minutes) resolved the enzymatically released product, ^14 C-oleic acid, from the unreacted ^14 C-phospholipid substrate. The unsaturated lipids were located on the chromatogram by a brief exposure to iodine vapor. […] A control incubation of substrate in the absence of HSF-PLA2 was performed in each experiment.

PLA2 Rat Paw Edema = test: Phospholipase A2 Rat Paw Edema; assay type: in vivo, Lewis rats; conditions: for inhibition in vivo at 30 mg/kg: Rattus norvegicus, 2 hr, read-out: % Inhib of PLA2 Rat Paw Edema 2 hr (30 mg/kg)
Protocol: Phospholipase A2 Rat Paw Edema
Representation compounds of the invention were tested in rats to determine their ability to inhibit the acute inflammatory response induced by the injection of snake venom phospholipase A2. Test compounds are administered intraperitoneally or orally to groups of seven Lewis rats (≈200 gm) 1 hr prior to phospholipase A2 administration. The test compounds are dissolved in dimethyl sulfoxide for intraperitoneal administration and dissolved or suspended in Labrafil M-1944CS for oral administration. At 0 hr, 5 ug (10 units) of purified phospholipase A2 from Naja naja venom (Sigma Chem. Co.) dissolved in 0.1 mL of pyrogen free saline is injected subplantarly into the right hind paw to elicit the inflammatory response. The volume (in mL) of the right hind paw is measured by immersion of the paw to the level of the lateral malleolus in an aqueous plethysmometer immediately prior to the injection of phospholipase A2 and then at 0.5, 2 and 4 hr after phospholipase A2 injection. The paw edema is calculated by subtracting the zero time reading from the readings taken after injection. The percent change of the edema volume from the vehicle treated control is calculated to determine the activity of the test compound. Statistical analysis of the mean paw edema values of the control versus the treated groups is performed using Student's t-test. Significance of changes from mean value for vehicle-treated animals (*p<0.05, **p<0.01, ***p<0.001, ns/not significant).

[1] = test system: Croton Oil Mouse Ear Edema; test: Croton Oil Mouse Ear Edema Test; assay type: in vivo, CD-1 mice; conditions: topical, coapplied, 6 hours
Protocol: Twenty five μl of a 1% croton oil solution [dissolved in a mixture of pyridine/water/diethyl ether at a ratio of 5/20/75 (croton oil vehicle)] are applied to the outer side of the right ear of 3-4 week old made CD-1 mice (8 animals per group). The test compounds are dissolved directly in the 1% croton oil solution at various concentrations and coapplied. Control animals receive 25 μl of croton oil vehicle on the right ear. Biopsy punches are removed at 6 hours from the right ear of the animals using a 6 mm skin trephine (Roboz, Washington, D.C.) and the wet weight of the ear punches is determined. The weight of the biopsy punches is a measure of ear inflammation, primarily edema. The data are expressed as percent inhibition relative to control groups.

`CCCCCCCCCCCCCCCCCNC(=O)Oc1cccc(N(CC(=O)O)CC(=O)O)c1` [Example 36c, N-(carboxymethyl)-N-[3-[[(heptadecylamino)carbonyl]oxy]phenyl]glycine] was tested, and the pIC50 (HSF-PLA2) was 6.00, the inhibition in vivo at 30 mg/kg (PLA2 Rat Paw Edema) was 0% and the “% Inhib of Croton Oil Mouse Ear Edema (1 mg)” value (from here on “% Inhib … (1 mg)”) [1] was 0%.

For `CCCCCCCCCCCCCCCCCCNC(=O)Nc1cccc(N(CC(=O)O)CC(=O)O)c1` [Example 36e, N-(carboxymethyl)-N-[3-[[(octadecylamino)carbonyl]amino]phenyl]glycine], the inhibition at 5 µM (HSF-PLA2) was 74%, the inhibition in vivo at 30 mg/kg (PLA2 Rat Paw Edema) was 30% and the “% Inhib … (1 mg)” value [1] was 31%.

With `CCCCCCCCCCCCCCCCCCNC(=O)c1cccc(N(CC(=O)O)CC(=O)O)c1` [Example 42] the pIC50 (HSF-PLA2) was 6.40, the inhibition in vivo at 30 mg/kg (PLA2 Rat Paw Edema) was 38% and the “% Inhib … (1 mg)” value [1] was 0%.

For `CCCCCCCCCCCCCCCCCCOc1cc(OCCO)cc(N(CC(=O)O)CC(=O)O)c1` [Example 58a, N-(carboxymethyl)-N-[3-(2-hydroxyethoxy)-5-(octadecyloxy)phenyl]glycine], the pIC50 (HSF-PLA2) was 6.70, the inhibition in vivo at 30 mg/kg (PLA2 Rat Paw Edema) was 29% and the “% Inhib … (1 mg)” value [1] was 0%.

In the case of `CCCCCCCCCCCCCCCCCCOc1cc(OCC(=O)OC)cc(N(CC(=O)O)CC(=O)O)c1` [Example 58b, N-(carboxymethyl)-N-[3-(2-methoxy-2-oxoethoxy)-5-(octadecyloxy)phenyl]glycine], the inhibition at 5 µM (HSF-PLA2) was 91%, the inhibition in vivo at 30 mg/kg (PLA2 Rat Paw Edema) was 20% and the “% Inhib … (1 mg)” value [1] was 19%.

`CCCCCCCCCCCCCCCCCCOc1cc(OCC(=O)O)cc(N(CC(=O)O)CC(=O)O)c1` [Example 58c, N-[3-(carboxymethoxy)-5-(octadecyloxy)phenyl]-N-(carboxymethyl)glycine] was tested, and the pIC50 (HSF-PLA2) was 5.55, the inhibition in vivo at 30 mg/kg (PLA2 Rat Paw Edema) was 39% and the “% Inhib … (1 mg)” value [1] was 0%.

`CCCCCCCCCCCCCCCCCCOc1cc(OCCOc2ccc3ccccc3c2)cc(N(CC(=O)O)CC(=O)O)c1` [Example 58h, N-(carboxymethyl)-N-[3-[2-(2-naphthalenyloxy)ethoxy]-5-(octadecyloxy)phenyl]glycine] was tested, and the pIC50 (HSF-PLA2) was 7.30, the inhibition in vivo at 30 mg/kg (PLA2 Rat Paw Edema) was 31% and the “% Inhib … (1 mg)” value [1] was 3%.

In the case of `CCCCCCCCCCCCCCCCCCOc1cc(OCCCOc2cccc(OC)c2)cc(N(CC(=O)O)CC(=O)O)c1` [Example 58j, N-(carboxymethyl)-N-[3-[3-(3-methoxyphenoxy)propoxy]-5-(octadecyloxy)phenyl]glycine], the pIC50 (HSF-PLA2) was 7.22, the inhibition in vivo at 30 mg/kg (PLA2 Rat Paw Edema) was 57% and the “% Inhib … (1 mg)” value [1] was 28%.

With `CCCCCCCCCCCCCCCCCCOc1cc(OCCCOc2ccc(OC)cc2)cc(N(CC(=O)O)CC(=O)O)c1` [Example 58k, N-(carboxymethyl)-N-[3-[3-(4-methoxyphenoxy)propoxy]-5-(octadecyloxy)phenyl]glycine] the pIC50 (HSF-PLA2) was 7.30, the inhibition in vivo at 30 mg/kg (PLA2 Rat Paw Edema) was 0% and the “% Inhib … (1 mg)” value [1] was 85%.

In the case of `CCCCCCCCCCCCCCCCCCOc1cc(OCCCOc2ccc(O)cc2)cc(N(CC(=O)O)CC(=O)O)c1` [Example 58l, N-(carboxymethyl)-N-[3-[3-(4-hydroxyphenoxy)propoxy]-5-(octadecyloxy)phenyl]glycine], the inhibition at 1 µM (HSF-PLA2) was 81%, the inhibition in vivo at 30 mg/kg (PLA2 Rat Paw Edema) was 53% and the “% Inhib … (1 mg)” value [1] was 76%.

In the case of `CCCCCCCCCCCCCCCCCCOc1cc(OCCCOc2ccc(C(=O)OC)cc2)cc(N(CC(=O)O)CC(=O)O)c1` [Example 58o, N-(carboxymethyl)-N-[3-[3-[4-(methoxycarbonyl)phenoxy)propoxy]-5-(octadecyloxy)phenyl]glycine], the pIC50 (HSF-PLA2) was 7.00, the inhibition in vivo at 30 mg/kg (PLA2 Rat Paw Edema) was 0% and the “% Inhib … (1 mg)” value [1] was 30%.

`CCCCCCCCCCCCCCCCCCOc1cc(OCCCCC(=O)O)cc(N(CC(=O)O)CC(=O)O)c1` [Example 65, N-[3-(4-Carboxybutoxy)-5-(octadecyloxy)phenyl]-N-(carboxymethyl)glycine] was tested, and the pIC50 (HSF-PLA2) was 6.07, the inhibition in vivo at 30 mg/kg (PLA2 Rat Paw Edema) was 35% and the “% Inhib … (1 mg)” value [1] was 91%.

With `CCCCCCCCCCCCCCCCCCOc1cc(C(=O)OC)cc(N(CC(=O)O)CC(=O)O)c1` [Example 69, N-(Carboxymethyl)-N-[3-(methoxycarbonyl)-5-(octadecyloxy)phenyl]glycine] the pIC50 (HSF-PLA2) was 7.00, the inhibition in vivo at 30 mg/kg (PLA2 Rat Paw Edema) was 57% and the “% Inhib … (1 mg)” value [1] was 22%.

In the case of `CCCCCCCCCCCCCCOc1cc(C(=O)OC)cc(N(CC(=O)O)CC(=O)O)c1` [Example 69a, N-(carboxymethyl)-N-[(3-methoxycarbonyl)-5-(tetradecyloxy)phenyl]glycine], the inhibition at 1 µM (HSF-PLA2) was 52%, the inhibition in vivo at 30 mg/kg (PLA2 Rat Paw Edema) was 12% and the “% Inhib … (1 mg)” value [1] was 71%.

`CCCCCCCCCCCCCCOc1cc(C(=O)O)cc(N(CC(=O)O)CC(=O)O)c1` [Example 69b, N-[3-carboxy-5-(tetradecyloxy)pyhenyl]-N-(carboxymethyl)glycine] was tested, and the inhibition at 1 µM (HSF-PLA2) was 18%, the inhibition in vivo at 30 mg/kg (PLA2 Rat Paw Edema) was 4% and the “% Inhib … (1 mg)” value [1] was 72%.

`CCCCCCCCCCOc1cc(C(=O)O)cc(N(CC(=O)O)CC(=O)O)c1` [Example 69d, N-[3-carboxy-5-(decyloxy)phenyl]-N-(carboxymethyl)glycine] was tested, and the inhibition at 1 µM (HSF-PLA2) was 7%, the inhibition in vivo at 30 mg/kg (PLA2 Rat Paw Edema) was 0% and the “% Inhib … (1 mg)” value [1] was 63%.

For `CCCCCCCCCCCCCCCCCCOc1cc(C(N)=O)cc(N(CC(=O)O)CC(=O)O)c1` [Example 75, N-(Carboxymethyl)-N-[(3-carbamoyl)-5-(octadecyloxy)phenyl]glycine], the inhibition at 5 µM (HSF-PLA2) was 84%, the inhibition in vivo at 30 mg/kg (PLA2 Rat Paw Edema) was 33% and the “% Inhib … (1 mg)” value [1] was 15%.

In the case of `CCCCCCCCCCCCCCCCCCOc1cc(O)cc(N(CC(=O)O)CC(=O)O)c1` [Example 81, N-(Carboxymethyl)-N-[3-hydroxy-5-(octadecyloxy)phenyl]glycine], the pIC50 (HSF-PLA2) was 6.64, the “% Inhib of PLA2 Rat Paw Edema 2 hr” value (PLA2 Rat Paw Edema; (10 mg/kg)) was 44% and the “% Inhib … (1 mg)” value [1] was 69%.

With `CCCCCCCCCCCCCCCCCCOc1cc(N(CC(=O)O)CC(=O)O)cc([N+](=O)[O-])c1` [Example 93, N-(Carboxymethyl)-N-[3-nitro-5-(octadecyloxy)phenyl]glycine] the inhibition at 1 µM (HSF-PLA2) was 56%, the inhibition in vivo at 30 mg/kg (PLA2 Rat Paw Edema) was 20% and the “% Inhib … (1 mg)” value [1] was 0%.

For `CCCCCCCCCCCCCCCCCCOc1cc(N)cc(N(CC(=O)O)CC(=O)O)c1` [Example 94, N-(Carboxymethyl)-N-[3-amino-5-(octadecyloxy)phenyl]glycine], the pIC50 (HSF-PLA2) was 6.38, the inhibition in vivo at 30 mg/kg (PLA2 Rat Paw Edema) was 28% and the “% Inhib … (1 mg)” value [1] was 10%.

`CCCCCCCCCCCCCCOc1ccc(N(CC(=O)O)CC(=O)O)cc1OCCCCCCCCCCCCCC` [Example 119, N-(Carboxymethyl)-N-[3,4-bis(tetradecyloxy)phenyl]glycine] was tested, and the inhibition at 1 µM (HSF-PLA2) was 36%, the inhibition in vivo at 30 mg/kg (PLA2 Rat Paw Edema) was 16% and the “% Inhib … (1 mg)” value [1] was 49%.

In the case of `CCCCCCCCCC(=O)Oc1ccc(N(CC(=O)O)CC(=O)O)cc1OC(=O)CCCCCCCCC` [Example 123, N-(Carboxymethyl)-N-[3,4-bis[(1-oxodecyl)oxy]phenyl]glycine], the pIC50 (HSF-PLA2) was 6.32, the inhibition in vivo at 30 mg/kg (PLA2 Rat Paw Edema) was 4% and the “% Inhib … (1 mg)” value [1] was 58%.

`CCCCCCCCCCCCCCCCCCOc1cc(OCc2ccc3ccccc3n2)cc(N(CC(=O)O)CC(=O)O)c1` [Example 148, N-(Carboxymethyl)-N-[3-(octadecyloxy)-5-[(2-quinolinyl)methoxy]phenyl]glycine] was tested, and the inhibition at 1 µM (HSF-PLA2) was 91%, the inhibition in vivo at 30 mg/kg (PLA2 Rat Paw Edema) was 37% and the “% Inhib … (1 mg)” value [1] was 26%.

In the case of `CCCCCCCCCCCCCCCCCCOc1cc(N(CC(=O)O)CC(=O)O)cc([S+]([O-])CC(=O)O)c1` (stereo not drawn) [Example 168, [[3-[bis(Carboxymethyl)amino]-5-(octadecyloxy)phenyl]sulfinyl]acetic acid], the inhibition at 1 µM (HSF-PLA2) was 26%, the inhibition in vivo at 30 mg/kg (PLA2 Rat Paw Edema) was 45% and the “% Inhib … (1 mg)” value [1] was 83%.
